Data as given in patent EP4813403A1, “USE OF GLP-1R/GIPR DOUBLE-TARGET AGONIST IN PREPARING ANIMAL DRUG” (Hangzhou Zhongmeihuadong Pharmaceutical Co., Ltd., priority 2023, dated 2025).
Read-outs that look alike come from different tables or passages of the source.

Key:
[1] = Pharmacokinetics in C57 mice; conditions: in vivo
Protocol: After subcutaneous or intravenous administration to C57 mice, plasma was collected and the drug concentration in plasma was determined to illustrate the in vivo pharmacokinetic properties of the compound according to the present invention. […] 20.0 µL of thawed plasma sample was taken. 20 µL of 50% aqueous methanol solution (containing 100 ng mL^-1 Tolbutamide) and 60 µL of acetonitrile were added sequentially to precipitate protein. The mixture was vortexed for 5 minutes, and centrifuged at 4815 rpm for 8 minutes. 50.0 µL of the supernatant was taken, into which 50.0 µL of 0.5% aqueous formic acid solution was added. The mixture was vortexed for 5 minutes. 50 µL of the mixture solution was sampled and injected into the LC-MS/MS to determine the drug concentration in plasma. Based on the drug concentration in plasma of the compounds in C57 mice, the pharmacokinetic parameters were calculated by applying the software Winnolin 8.3 in a non-compartmental model, and the results were shown in Table 7 and Table 8 below. Table 7 Average Pharmacokinetic Parameters after Single Subcutaneous Administration to Mice

[2] = Pharmacokinetics following single administration in SD rats; conditions: male, Sprague-Dawley, rat, in vivo, sc
Protocol: The compound was administrated to male SD rats (230-268 g, n=3) at a dose of 50.0 nmol/kg (s.c.) or 25.0 nmol/kg (i.v.). […] 30.0 μL of thawed plasma sample was taken. 150 μL of acetonitrile solution (containing 5 ng·mL^-1 Verapamil , 50 ng·mL^-1 Glibenclamide, 200 ng·mL^-1 Tolbutamide and 200 ng·mL^-1 Diclofenac) were added to precipitate protein. The mixture was vortexed for 5 minutes, and centrifuged at 3700 rpm for 8 minutes. 70.0 μL of the supernatant was taken, into which 70.0 μL of 0.5% aqueous formic acid solution was added. The mixture was vortexed for 5 minutes. 15 μL of the mixture solution was sampled and injected into the LC-MS/MS to determine the drug concentration in plasma. 20.0 μL of thawed plasma sample was taken. 60 μL of acetonitrile solution (containing 5 ng·mL^-1 Verapamil, 50 ng·mL^-1 Glibenclamide, 200 ng·mL^-1 Tolbutamide and 200 ng·mL^-1 Diclofenac) were added to precipitate protein. […] The mixture was vortexed for 10 minutes. 10.0 μL of the mixture solution was sampled and injected into the LC-MS/MS to determine the drug concentration in plasma. 30.0 μL of thawed plasma sample was taken. 150 μL of acetonitrile solution (containing 5 ng·mL^-1 Verapamil, 50 ng·mL^-1 Glibenclamide, 200 ng·mL^-1 Tolbutamide and 200 ng·mL^-1 Diclofenac) were added to precipitate protein. The mixture was vortexed for 5 minutes, and centrifuged at 3700 rpm for 8 minutes. 70.0 μL of the supernatant was taken, into which 70.0 μL of 0.5% aqueous formic acid solution was added. The mixture was vortexed for 5 minutes. 10.0 μL of the mixture solution was sampled and injected into the LC-MS/MS to determine the drug concentration in plasma. […] Table 5 Pharmacokinetic Parameters after Subcutaneous Injection of Different Polypeptide Compounds to Rats

human GIP Receptor = target: T1, human GIP Receptor (Homo sapiens, UniProt P48546); test: In vitro binding activity to human GIP receptor ([125I]GIP displacement, crude cell membranes); conditions: ratio of the Ki value of the endogenous ligand to the Ki value of the test compound; larger ratio = stronger binding
T1 construct: expressed in transfected cells
T1 sequence (P48546 22-466): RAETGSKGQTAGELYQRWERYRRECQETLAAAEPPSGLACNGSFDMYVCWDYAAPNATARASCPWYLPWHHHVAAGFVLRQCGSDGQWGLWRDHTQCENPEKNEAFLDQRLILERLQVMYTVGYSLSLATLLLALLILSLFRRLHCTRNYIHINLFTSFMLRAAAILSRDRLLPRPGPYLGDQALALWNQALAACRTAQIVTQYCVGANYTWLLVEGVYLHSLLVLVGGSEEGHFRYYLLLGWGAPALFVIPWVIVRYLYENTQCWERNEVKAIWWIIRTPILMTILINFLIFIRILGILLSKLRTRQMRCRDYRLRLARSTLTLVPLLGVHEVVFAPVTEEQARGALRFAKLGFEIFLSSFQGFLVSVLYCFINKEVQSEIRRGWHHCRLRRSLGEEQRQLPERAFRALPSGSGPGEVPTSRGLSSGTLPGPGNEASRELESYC
Protocol: 89 µL of membrane dissolved in binding buffer (50 mM Hepes, pH 7.4, 5 mM MgCl2 , 5 mM EDTA, 0.005% TWEEN, 0.005% HSA) was transferred to a 96-well test plate (5 µg/well). The compound was serially diluted in DMSO, and then, 1 µL of the diluted compound or 100% DMSO was added to the test plate containing the membrane solution. 10 µL of [^125I] […] The test plate was left at room temperature for 90 minutes. The membrane complexes were harvested into a GF/B plate pre-coated with 0.5% PEI by using a Cell Harvester, and washed for 3 times with 500 µL of pre-cooled elution buffer (50 mM Hepes, pH 7.4, 500 mM NaCl) at 4°C. After drying at 37°C for 2 hours, 50 µL of scintillation fluid was added to each well. The plate was read with a MicroBeta2 scintillation counter after sealing and settling for at least 1 hour so as to determine the membrane bound radioligand level.
hGIP and the compound of the present invention were dissolved in DMSO and stored at -80°C. 98 µL of membrane dissolved in binding buffer (50 mM HEPES pH 7.4, 5 mM MgCl2, 1 mM CaCl2, 0.1% BSA, 0.005% Tween-20) was transferred to a 96-well test plate (15 µg/well). The compound was serially diluted in DMSO, and then, 2 µL of the diluted compounds or 100% DMSO was added to the test plate containing the membrane solution. […] The test plate was left at room temperature for 90 minutes. The membrane complexes were harvested into a GF/B plate pre-coated with 0.5% PEI by using a Cell Harvester, and washed for 3 times with 500 µL of pre-cooled elution buffer (50 mM Tris-HCl pH 7.4, 125 mM NaCl) at 4°C. After drying at 37°C for 2 hours, 50 µL of scintillation fluid was added to each well. The plate was read with a MicroBeta2 scintillation counter after sealing and settling for at least 1 hour so as to determine the membrane bound radioligand level.
The IC50 concentration was converted to Ki (Ki was the inhibition constant) using the Cheng-Prusoff equation. Table 1. Receptor Binding Affinity, Ki Ratio

[3] = SD rats, subcutaneous injection, 50 nmol/kg

CC[C@H](C)[C@H](NC(=O)C(C)(C)NC(=O)[C@H](Cc1ccc(O)cc1)NC(=O)[C@H](CC(=O)O)NC(=O)[C@H](CO)NC(=O)[C@@H](NC(=O)C(C)(Cc1ccccc1)NC(=O)[C@@H](NC(=O)CNC(=O)[C@H](CCC(=O)O)NC(=O)C(C)(C)NC(=O)[C@@H](N)Cc1ccc(O)cc1)[C@@H](C)O)[C@@H](C)O)C(=O)NC(C)(C)C(=O)N[C@@H](CC(C)C)C(=O)N[C@@H](CC(=O)O)C(=O)N[C@@H](CCCCN)C(=O)N[C@@H](CCC(N)=O)C(=O)N[C@@H](C)C(=O)N[C@@H](CCC(N)=O)C(=O)N[C@@H](C)C(=O)N[C@@H](CCC(=O)O)C(=O)N[C@@H](Cc1ccccc1)C(=O)N[C@H](C(=O)N[C@@H](CCCCNC(=O)COCCOCCNC(=O)COCCOCCNC(=O)CC[C@H](NC(=O)CCCCCCCCCCCCCCCCCCCCC(=O)O)C(=O)O)C(=O)N[C@@H](Cc1c[nH]c2ccccc12)C(=O)N[C@@H](CC(C)C)C(=O)N[C@@H](CC(C)C)C(=O)N[C@@H](CCCCN)C(=O)NCC(=O)NCC(=O)N1CCC[C@H]1C(=O)N[C@@H](CO)C(=O)N[C@@H](CO)C(=O)NCC(=O)N[C@@H](C)C(=O)N1CCC[C@H]1C(=O)N1CCC[C@H]1C(=O)N1CCC[C@H]1C(=O)N[C@@H](CO)C(=O)N[C@@H](CCCCN)C(N)=O)C(C)C (some centres unmarked) [Compound P014]
AUC(0-inf) ([1]; C57, mouse, iv): 18200 ng·h/mL
AUC(0-t) ([1]; C57, mouse, iv): 17500 ng·h/mL
C0 ([1]; C57, mouse, iv): 1940 ng/mL
half-life ([1]; C57, mouse, iv): 17.2 h
MRT ([1]; C57, mouse, iv, MRT(0-t)): 15.7 h
MRT ([1]; C57, mouse, iv, MRT(0-∞)): 19.2 h
AUC(0-inf) ([1]; C57, mouse, sc): 30200 ng·h/mL
AUC(0-t) ([1]; C57, mouse, sc): 27300 ng·h/mL
Cmax ([1]; C57, mouse, sc): 852 ng/mL
Tmax ([1]; C57, mouse, sc): 6 h
half-life ([1]; C57, mouse, sc): 20.3 h
MRT ([1]; C57, mouse, sc, MRT(0-t)): 22.9 h
MRT ([1]; C57, mouse, sc, MRT(0-∞)): 30.3 h
Tmax [2]: 24 h
half-life [2]: 14.8 ± 0.503 h
GIPR Ki ratio (human GIP Receptor): 0.08

CC[C@H](C)[C@H](NC(=O)C(C)(C)NC(=O)[C@H](Cc1ccc(O)cc1)NC(=O)[C@H](CC(=O)O)NC(=O)[C@H](CO)NC(=O)[C@@H](NC(=O)C(C)(Cc1ccccc1)NC(=O)[C@@H](NC(=O)CNC(=O)[C@H](CCC(=O)O)NC(=O)C(C)(C)NC(=O)[C@@H](N)Cc1ccc(O)cc1)[C@@H](C)O)[C@@H](C)O)C(=O)NC(C)(C)C(=O)N[C@@H](CC(C)C)C(=O)N[C@@H](CC(=O)O)C(=O)N[C@@H](CCCCN)C(=O)N[C@@H](CCC(N)=O)C(=O)N[C@@H](C)C(=O)N[C@@H](CCC(N)=O)C(=O)N[C@@H](C)C(=O)N[C@@H](CCC(=O)O)C(=O)N[C@@H](Cc1ccccc1)C(=O)N[C@H](C(=O)N[C@@H](CCCCNC(=O)COCCOCCNC(=O)COCCOCCNC(=O)COCCOCCNC(=O)CC[C@H](NC(=O)CCCCCCCCCCCCCCCCCCCCC(=O)O)C(=O)O)C(=O)N[C@@H](Cc1c[nH]c2ccccc12)C(=O)N[C@@H](CC(C)C)C(=O)N[C@@H](CC(C)C)C(=O)N[C@@H](CCCCN)C(=O)NCC(=O)NCC(=O)N1CCC[C@H]1C(=O)N[C@@H](CO)C(=O)N[C@@H](CO)C(=O)NCC(=O)N[C@@H](C)C(=O)N1CCC[C@H]1C(=O)N1CCC[C@H]1C(=O)N1CCC[C@H]1C(=O)N[C@@H](CO)C(=O)N[C@@H](CCCCN)C(N)=O)C(C)C (some centres unmarked) [Compound P016]
MRT ([1]; C57, mouse, iv, MRT(0-t)): 19.9 h
MRT ([1]; C57, mouse, iv, MRT(0-∞)): 26.6 h
MRT ([1]; C57, mouse, sc, MRT(0-t)): 26 h
MRT ([1]; C57, mouse, sc, MRT(0-∞)): 35.9 h
AUC(0-t) ([1]; mouse, sc, C57 mice, single subcutaneous administration, read-out: AUC(0-t)): 15900 ng·h/mL
AUC(0-inf) ([1]; mouse, sc, C57 mice, single subcutaneous administration, read-out: AUC(0-∞)): 18200 ng·h/mL
Cmax ([1]; mouse, sc, C57 mice, single subcutaneous administration, read-out: Cmax): 434 ng/mL
half-life ([1]; mouse, sc, C57 mice, single subcutaneous administration, read-out: T1/2 (converted)): 23.1 h
Tmax ([1]; mouse, sc, C57 mice, single subcutaneous administration, read-out: Tmax): 8 h
AUC(0-t) ([1]; mouse, C57 mice, single intravenous administration, read-out: AUC(0-t)): 11100 ng·h/mL
AUC(0-inf) ([1]; mouse, C57 mice, single intravenous administration, read-out: AUC(0-∞)): 12100 ng·h/mL
C0 ([1]; mouse, C57 mice, single intravenous administration, read-out: C0): 1150 ng/mL
half-life ([1]; mouse, C57 mice, single intravenous administration, read-out: T1/2 (converted)): 20.1 h
AUC(0-inf) [2, 3]: 5.07 ± 0.262 µM·h
AUC(0-t) [2, 3]: 4.84 ± 0.27 µM·h
Cmax [2, 3]: 119 ± 7 nM
half-life ([2]; SD rats, subcutaneous injection, 50 nmol/kg, read-out: T1/2 (converted)): 14.1 ± 0.153 h
Tmax ([2]; SD rats, subcutaneous injection, 50 nmol/kg, read-out: Tmax): 24 h
GIPR Ki ratio (human GIP Receptor): 0.11

CC[C@H](C)[C@H](NC(=O)C(C)(C)NC(=O)[C@H](Cc1ccc(O)cc1)NC(=O)[C@H](CC(=O)O)NC(=O)[C@H](CO)NC(=O)[C@@H](NC(=O)C(C)(Cc1ccccc1)NC(=O)[C@@H](NC(=O)CNC(=O)[C@H](CCC(=O)O)NC(=O)C(C)(C)NC(=O)[C@@H](N)Cc1ccc(O)cc1)[C@@H](C)O)[C@@H](C)O)C(=O)NC(C)(C)C(=O)N[C@@H](CC(C)C)C(=O)N[C@@H](CC(=O)O)C(=O)N[C@@H](CCCCN)C(=O)N[C@@H](CCC(N)=O)C(=O)N[C@@H](C)C(=O)N[C@@H](CCC(N)=O)C(=O)N[C@@H](C)C(=O)N[C@@H](CCC(=O)O)C(=O)N[C@@H](Cc1ccccc1)C(=O)N[C@H](C(=O)N[C@@H](CCCCN)C(=O)N[C@@H](Cc1c[nH]c2ccccc12)C(=O)N[C@@H](CC(C)C)C(=O)N[C@@H](CC(C)C)C(=O)N[C@@H](CCCCNC(=O)COCCOCCNC(=O)COCCOCCNC(=O)CC[C@H](NC(=O)CCCCCCCCCCCCCCCCCCCCC(=O)O)C(=O)O)C(=O)NCC(=O)NCC(=O)N1CCC[C@H]1C(=O)N[C@@H](CO)C(=O)N[C@@H](CO)C(=O)NCC(=O)N[C@@H](C)C(=O)N1CCC[C@H]1C(=O)N1CCC[C@H]1C(=O)N1CCC[C@H]1C(=O)N[C@@H](CO)C(=O)N[C@@H](CCCCN)C(N)=O)C(C)C (some centres unmarked) [Compound P017]
Tmax [2]: 24 h
half-life [2]: 18.7 ± 2.69 h
GIPR Ki ratio (human GIP Receptor): 0.04
